Values after ≈ are worked out from the molar mass of the structure shown.
Assays:
Experiment in all cases: In vitro antibacterial evaluation: minimum inhibitory concentration (MIC), broth dilution method
Format in all cases: cell-based
Escherichia coli = tested on: Escherichia coli
In short: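 An MIC is reported for each organism as the least concentration giving inhibition, using broth dilution over 64-0.06 μg/mL with a 5×10^5 CFU/mL inoculum.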

Streptococcus sp. = tested on: Streptococcus sp.
In short: (§1)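 First, organisms are seeded at 5×10^5 CFU/mL into Muller-Hinton II […]. Next, antibiotic is applied across 64-0.06 μg/mL by broth dilution (NCCLS M7-A2). Finally, the lowest inhibitory concentration is recorded as MIC.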

Enterococcus sp. = tested on: Enterococcus sp.
In short: as §1

Staphylococcus sp. = conditions: for MIC Staphylococcus haemolyticus (GC 4546): strain GC 4546; for MIC Coagulase Negative Staphylococcus (GC 4547): strain GC 4547; for MIC Coagulase Negative Staphylococcus (GC 4548): strain GC 4548; for MIC Coagulase Negative Staphylococcus (GC 4549): strain GC 4549; for MIC Coagulase Negative Staphylococcus (GC 4551): strain GC 4551; for MIC Coagulase Negative Staphylococcus (ID-3941): strain ID-3941
In short: as §1

[1] = broth dilution, 5×10^5 CFU/mL, 18 hours at 35° C.
[2] = broth dilution, 18 hours at 35° C.

CC(C)CC1OCC2OC(OC3C(CO)OC(Oc4ccc(CC5NC(=O)C(C(C)c6ccccc6)NC(=O)CNC(=O)C(CO)NC(=O)C(C(O)C6CNC(=N)N6C6OC(CO)C(O)C(O)C6O)NC(=O)C(C(O)C6CNC(=N)N6)NC5=O)cc4)C(O)C3O)C(O)C(O)C2O1 (stereo not drawn) [Example 107, Cyclo[glycyl-β-methylphenylalanyl-O-[4-O-[4,6-O-(3-methylbutylidene)hexopyranosyl]-hexopyranosyl]tyrosyl-3-(2-iminoimidazolidin-4-yl)seryl-3-(3-hexopyranosyl-2-iminoimidazolidin-4-yl)serylseryl]]
MIC Escherichia coli (ATCC 25922) (Escherichia coli; 5×10^5 CFU/mL, 18 hours at 35° C.): 64 mg/L (≈ 46.9 µM) | MIC Streptococcus agalactiae (GC 4564) (Streptococcus sp.; [1]): 0.25 mg/L (≈ 0.183 µM) | MIC Streptococcus pneumoniae (GC 4565) (Streptococcus sp.; [1]): <0.12 mg/L | MIC Streptococcus pyogenes (ID-3187) (Streptococcus sp.; [1]): 0.25 mg/L (≈ 0.183 µM) | MIC Enterococccus avium (GC 4558) (Enterococcus sp.; [1]): 8 mg/L (≈ 5.87 µM) | MIC Enterococccus faecalis (ATCC 29212) (Enterococcus sp.; [1]): 4 mg/L (≈ 2.93 µM) | MIC Enterococccus faecalis (GC 4552) (Enterococcus sp.; [1]): 4 mg/L (≈ 2.93 µM) | MIC Enterococccus faecalis (GC 4553) (Enterococcus sp.; [1]): 8 mg/L (≈ 5.87 µM) | MIC Enterococccus faecalis (GC 4554) (Enterococcus sp.; [1]): 4 mg/L (≈ 2.93 µM) | MIC Enterococccus faecium (GC 2243) (Enterococcus sp.; [1]): 8 mg/L (≈ 5.87 µM) | MIC Enterococccus faecium (GC 4556) (Enterococcus sp.; [1]): 4 mg/L (≈ 2.93 µM) | MIC Enterococccus faecium (GC 4557) (Enterococcus sp.; [1]): 2 mg/L (≈ 1.47 µM) | MIC Enterococcus faecalis (GC 2242) (Enterococcus sp.; [1]): 4 mg/L (≈ 2.93 µM) | MIC Staphylococcus aureus (ATCC 29213) (Staphylococcus sp.; strain ATCC 29213): 1 mg/L (≈ 0.733 µM) | MIC Staphylococcus aureus (ATCC 29213) (Staphylococcus sp.; strain ATCC 29213, broth dilution, 18 hours at 35° C.): 1 mg/L (≈ 0.733 µM) | MIC Staphylococcus aureus (GC 1131) (Staphylococcus sp.; strain GC 1131): 2 mg/L (≈ 1.47 µM) | MIC Staphylococcus aureus (GC 1131) (Staphylococcus sp.; strain GC 1131, broth dilution, 18 hours at 35° C.): 2 mg/L (≈ 1.47 µM) | MIC Staphylococcus aureus (GC 4541) (Staphylococcus sp.; strain GC 4541): 2 mg/L (≈ 1.47 µM) | MIC Staphylococcus aureus (GC 4541) (Staphylococcus sp.; strain GC 4541, broth dilution, 18 hours at 35° C.): 2 mg/L (≈ 1.47 µM) | MIC Staphylococcus aureus (GC 4542) (Staphylococcus sp.; strain GC 4542): 1 mg/L (≈ 0.733 µM) | MIC Staphylococcus aureus (GC 4542) (Staphylococcus sp.; strain GC 4542, broth dilution, 18 hours at 35° C.): 1 mg/L (≈ 0.733 µM) | MIC Staphylococcus aureus-SMITH (GC 4543) (Staphylococcus sp.; strain GC 4543, 18 hours at 35° C.): 1 mg/L (≈ 0.733 µM) | MIC Staphylococcus aureus-SMITH (GC 4543) (Staphylococcus sp.; strain GC 4543, broth dilution, 18 hours at 35° C.): 1 mg/L (≈ 0.733 µM) | MIC Staphylococcus aureus (GC 4544) (Staphylococcus sp.; strain GC 4544): 2 mg/L (≈ 1.47 µM) | MIC Staphylococcus aureus (GC 4544) (Staphylococcus sp.; strain GC 4544, broth dilution, 18 hours at 35° C.): 2 mg/L (≈ 1.47 µM) | MIC Staphylococcus aureus (GC 4545) (Staphylococcus sp.; strain GC 4545): 1 mg/L (≈ 0.733 µM) | MIC Staphylococcus aureus (GC 4545) (Staphylococcus sp.; strain GC 4545, broth dilution, 18 hours at 35° C.): 1 mg/L (≈ 0.733 µM) | MIC Staphylococcus haemolyticus (GC 4546) (Staphylococcus sp.): 1 mg/L (≈ 0.733 µM) | MIC Staphylococcus haemolyticus (GC 4546) (Staphylococcus sp.; [2]): 1 mg/L (≈ 0.733 µM) | MIC Coagulase Negative Staphylococcus (GC 4547) (Staphylococcus sp.): 1 mg/L (≈ 0.733 µM) | MIC Coagulase Negative Staphylococcus (GC 4547) (Staphylococcus sp.; [2]): 1 mg/L (≈ 0.733 µM) | MIC Coagulase Negative Staphylococcus (GC 4548) (Staphylococcus sp.): 1 mg/L (≈ 0.733 µM) | MIC Coagulase Negative Staphylococcus (GC 4548) (Staphylococcus sp.; [2]): 1 mg/L (≈ 0.733 µM) | MIC Coagulase Negative Staphylococcus (GC 4549) (Staphylococcus sp.): 1 mg/L (≈ 0.733 µM) | MIC Coagulase Negative Staphylococcus (GC 4549) (Staphylococcus sp.; [2]): 1 mg/L (≈ 0.733 µM) | MIC Coagulase Negative Staphylococcus (GC 4551) (Staphylococcus sp.): 1 mg/L (≈ 0.733 µM) | MIC Coagulase Negative Staphylococcus (GC 4551) (Staphylococcus sp.; [2]): 1 mg/L (≈ 0.733 µM) | MIC Coagulase Negative Staphylococcus (ID-3941) (Staphylococcus sp.): 1 mg/L (≈ 0.733 µM) | MIC Coagulase Negative Staphylococcus (ID-3941) (Staphylococcus sp.; [2]): 1 mg/L (≈ 0.733 µM)

CCCCCCN=C1NCC(C(O)C2NC(=O)C(C(O)C3CNC(=N)N3)NC(=O)C(Cc3ccc(OC4OC(CO)C(OC5OC6COC7(OC6C(O)C5O)C5CC6CC(C5)CC7C6)C(O)C4O)cc3)NC(=O)C(C(C)c3ccccc3)NC(=O)CNC(=O)C(CO)NC2=O)N1C1OC(CO)C(O)C(O)C1O (stereo not shown) [Example 84]
MIC Escherichia coli (ATCC 25922) (Escherichia coli; strain ATCC 25922): >64 mg/L | MIC Escherichia coli (GC 4559) (Escherichia coli; strain GC 4559): 64 mg/L (≈ 42.3 µM) | MIC Escherichia coli (GC 4560) (Escherichia coli; strain GC 4560): 4 mg/L (≈ 2.65 µM) | MIC Streptococcus agalactiae (GC 4564) (Streptococcus sp.; Streptococcus agalactiae (GC 4564), broth dilution, 18 hours at 35° C.): 1 mg/L (≈ 0.662 µM) | MIC Streptococcus pneumoniae (ATCC 6301) (Streptococcus sp.; Streptococcus pneumoniae (ATCC 6301), broth dilution, 18 hours at 35° C.): 1 mg/L (≈ 0.662 µM) | MIC Streptococcus pneumoniae (GC 1894) (Streptococcus sp.; Streptococcus pneumoniae (GC 1894), broth dilution, 18 hours at 35° C.): 0.12 mg/L (≈ 0.0794 µM) | MIC Streptococcus pneumoniae (GC 4565) (Streptococcus sp.; Streptococcus pneumoniae (GC 4565), broth dilution, 18 hours at 35° C.): 1 mg/L (≈ 0.662 µM) | MIC Streptococcus pyogenes (GC 4563) (Streptococcus sp.; Streptococcus pyogenes (GC 4563), broth dilution, 18 hours at 35° C.): 0.5 mg/L (≈ 0.331 µM) | MIC Streptococcus pneumoniae (ATCC 6301) (Streptococcus sp.; strain ATCC 6301): 1 mg/L (≈ 0.662 µM) | MIC Streptococcus pneumoniae (GC 1894) (Streptococcus sp.; strain GC 1894): 0.12 mg/L (≈ 0.0794 µM) | MIC Streptococcus pyogenes (GC 4563) (Streptococcus sp.; strain GC 4563): 0.5 mg/L (≈ 0.331 µM) | MIC Streptococcus agalactiae (GC 4564) (Streptococcus sp.; strain GC 4564): 1 mg/L (≈ 0.662 µM) | MIC Streptococcus pneumoniae (GC 4565) (Streptococcus sp.; strain GC 4565): 1 mg/L (≈ 0.662 µM) | MIC Enterococcus faecalis (GC 2242) (Enterococcus sp.; Enterococcus faecalis (GC 2242), broth dilution, 18 hours at 35° C.): 8 mg/L (≈ 5.29 µM) | MIC Enterococcus faecalis (GC 2691) (Enterococcus sp.; Enterococcus faecalis (GC 2691), broth dilution, 18 hours at 35° C.): 8 mg/L (≈ 5.29 µM) | MIC Enterococcus faecalis (GC 3059) (Enterococcus sp.; Enterococcus faecalis (GC 3059), broth dilution, 18 hours at 35° C.): 8 mg/L (≈ 5.29 µM) | MIC Enterococcus faecalis (ATCC 29212) (Enterococcus sp.; strain ATCC 29212): 8 mg/L (≈ 5.29 µM) | MIC Enterococcus faecalis (GC 2242) (Enterococcus sp.; strain GC 2242): 8 mg/L (≈ 5.29 µM) | MIC Enterococcus faecium (GC 2243) (Enterococcus sp.; strain GC 2243): 4 mg/L (≈ 2.65 µM) | MIC Enterococcus faecalis (GC 2691) (Enterococcus sp.; strain GC 2691): 8 mg/L (≈ 5.29 µM) | MIC Enterococcus faecalis (GC 3059) (Enterococcus sp.; strain GC 3059): 8 mg/L (≈ 5.29 µM) | MIC Enterococcus faecalis (GC 4552) (Enterococcus sp.; strain GC 4552): 8 mg/L (≈ 5.29 µM) | MIC Enterococcus faecalis (GC 4553) (Enterococcus sp.; strain GC 4553): 8 mg/L (≈ 5.29 µM) | MIC Enterococcus faecalis (GC 4554) (Enterococcus sp.; strain GC 4554): 16 mg/L (≈ 10.6 µM) | MIC Enterococcus faecium (GC 4556) (Enterococcus sp.; strain GC 4556): 8 mg/L (≈ 5.29 µM) | MIC Enterococcus faecium (GC 4557) (Enterococcus sp.; strain GC 4557): 1 mg/L (≈ 0.662 µM) | MIC Enterococcus avium (GC 4558) (Enterococcus sp.; strain GC 4558): 8 mg/L (≈ 5.29 µM) | MIC Enterococcus faecalis (GC 6189) (Enterococcus sp.; strain GC 6189): 8 mg/L (≈ 5.29 µM) | MIC Staphylococcus aureus (ATCC 29213) (Staphylococcus sp.; [2]): 8 mg/L (≈ 5.29 µM) | MIC Staphylococcus aureus (GC 1131) (Staphylococcus sp.; [2]): 8 mg/L (≈ 5.29 µM) | MIC Staphylococcus aureus (GC 3051) (Staphylococcus sp.; [2]): 8 mg/L (≈ 5.29 µM) | MIC Staphylococcus aureus (GC 3053) (Staphylococcus sp.; [2]): 8 mg/L (≈ 5.29 µM) | MIC Staphylococcus aureus (GC 4541) (Staphylococcus sp.; [2]): 4 mg/L (≈ 2.65 µM) | MIC Staphylococcus aureus (GC 4542) (Staphylococcus sp.; [2]): 8 mg/L (≈ 5.29 µM) | MIC Staphylococcus aureus (GC 4544) (Staphylococcus sp.; [2]): 8 mg/L (≈ 5.29 µM) | MIC Staphylococcus aureus (GC 4545) (Staphylococcus sp.; [2]): 8 mg/L (≈ 5.29 µM) | MIC Staphylococcus aureus-SMITH (GC 4543) (Staphylococcus sp.; strain SMITH GC 4543, broth dilution, 18 hours at 35° C.): 4 mg/L (≈ 2.65 µM)

Reference: US8247211B2, “Glycopeptide antibiotics” (American Cyanamid Company, priority 2001, dated 2012)
